Assay results taken from the supplement of paper PMC12350171.

Columns and labels:
Bacteroides fragilis NT = experiment: IC25 growth inhibition; higher = less potent
Outline: (§1)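 Monocultures grown overnight in mGAM were added to pre-reduced plates holding twofold drug dilutions, giving a starting OD578 of 0.01 and 1% DMSO (or water). Growth was followed anaerobically by hourly OD578 readings in a plate reader, with at least three biological replicates. The median growth-curve AUC per concentration was forced to be monotonic. IC25 was the lowest concentration with median AUC below 0.75, reported as a tested interval.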

[1] = tested on: Bacteroides thetaiotaomicron; experiment: IC25 growth inhibition; higher = less potent
Outline: as §1

Bacteroides uniformis = experiment: IC25 growth inhibition; higher = less potent
Outline: as §1

Bacteroides vulgatus = experiment: IC25 growth inhibition; higher = less potent
Outline: as §1

Clostridium bolteae = experiment: IC25 growth inhibition; higher = less potent
Outline: as §1

Clostridium perfringens = experiment: IC25 growth inhibition; higher = less potent
Outline: as §1

Clostridium ramosum = experiment: IC25 growth inhibition; higher = less potent
Outline: as §1

[2] = tested on: Clostridium saccharolyticum; experiment: IC25 growth inhibition; higher = less potent
Outline: as §1

Collinsella aerofaciens = experiment: IC25 growth inhibition; higher = less potent
Outline: as §1

Coprococcus comes = experiment: IC25 growth inhibition; higher = less potent
Outline: as §1

Dorea formicigenerans = experiment: IC25 growth inhibition; higher = less potent
Outline: as §1

Escherichia coli ED1a = experiment: IC25 growth inhibition; higher = less potent
Outline: as §1

Eubacterium rectale = experiment: IC25 growth inhibition; higher = less potent
Outline: as §1

[3] = tested on: Fusobacterium nucleatum subsp. Nucleatum; experiment: IC25 growth inhibition; higher = less potent
Outline: as §1

Parabacteroides merdae = experiment: IC25 growth inhibition; higher = less potent
Outline: as §1

Roseburia intestinalis = experiment: IC25 growth inhibition; higher = less potent
Outline: as §1

Ruminococcus gnavus = experiment: IC25 growth inhibition; higher = less potent
Outline: as §1

[4] = tested on: Salmonella enterica typhimurium; experiment: IC25 growth inhibition; higher = less potent
Outline: as §1

Shigella flexneri = experiment: IC25 growth inhibition; higher = less potent
Outline: as §1

[5] = tested on: Streptococcus parasanguinis; experiment: IC25 growth inhibition; higher = less potent
Outline: as §1

Streptococcus salivarius = experiment: IC25 growth inhibition; higher = less potent
Outline: as §1

Vibrio cholerae = experiment: IC25 growth inhibition; higher = less potent
Outline: as §1

[6] = tested on: Yersinia enterocolitica WA-314; experiment: IC25 growth inhibition; higher = less potent
Outline: as §1

[7] = tested on: Yersinia pseudotuberculosis; experiment: IC25 growth inhibition; higher = less potent
Outline: as §1

[8] = tested on: Com21 synthetic gut community; experiment: community biomass OD578 after 24 h drug treatment relative to untreated (fraction of untreated control); higher = more community growth; conditions: community: Com21 (Com20 + E. coli ED1a)
Method: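 Com21 (Com20 plus E. coli ED1a) was treated with drug for 24 h under anaerobic conditions in mGAM. Community OD578 was then measured and normalised to untreated Com21; mean of 3 biological replicates.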

[9] = drug pretreatment concentration 10 µM
[10] = drug pretreatment concentration 20 µM
[11] = drug pretreatment concentration 40 µM
[12] = drug pretreatment concentration 80 µM
[13] = drug pretreatment concentration 160 µM
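Throughout, for IC25 growth inhibition: lowest concentration where monotonic median growth AUC falls below 0.75 of drug-free control.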

Row | Compound | IC25 growth inhibition (Bacteroides fragilis NT) [µM] | IC25 growth inhibition [1] [µM] | IC25 growth inhibition (Bacteroides uniformis) [µM] | IC25 growth inhibition (Bacteroides vulgatus) [µM] | IC25 growth inhibition (Clostridium bolteae) [µM] | IC25 growth inhibition (Clostridium perfringens) [µM] | IC25 growth inhibition (Clostridium ramosum) [µM] | IC25 growth inhibition [2] [µM] | IC25 growth inhibition (Collinsella aerofaciens) [µM] | IC25 growth inhibition (Coprococcus comes) [µM] | IC25 growth inhibition (Dorea formicigenerans) [µM] | IC25 growth inhibition (Escherichia coli ED1a) [µM] | IC25 growth inhibition (Eubacterium rectale) [µM] | IC25 growth inhibition [3] [µM] | IC25 growth inhibition (Parabacteroides merdae) [µM] | IC25 growth inhibition (Roseburia intestinalis) [µM] | IC25 growth inhibition (Ruminococcus gnavus) [µM] | IC25 growth inhibition [4] [µM] | IC25 growth inhibition (Shigella flexneri) [µM] | IC25 growth inhibition [5] [µM] | IC25 growth inhibition (Streptococcus salivarius) [µM] | IC25 growth inhibition (Vibrio cholerae) [µM] | IC25 growth inhibition [6] [µM] | IC25 growth inhibition [7] [µM] | community biomass OD578 [8, 9] | community biomass OD578 [8, 10] | community biomass OD578 [8, 11] | community biomass OD578 [8, 12] | community biomass OD578 [8, 13] | community biomass OD578 ([8]; drug pretreatment concentration 2.5 µM) | community biomass OD578 ([8]; drug pretreatment concentration 5 µM)
1 | CN(N=O)C(=O)N[C@@H](C=O)[C@@H](O)[C@H](O)[C@H](O)CO [Streptozotocin] | ≤ 20 | ≤ 40 | ≤ 40 | ≤ 20 | ≤ 2.5 | > 160 | < 1.25 | < 1.25 | ≤ 10 | ≤ 2.5 | > 160 | ≤ 2.5 | > 160 | < 1.25 | ≤ 20 | < 1.25 | < 1.25 | ≤ 10 | ≤ 2.5 | ≤ 20 | > 160 | ≤ 2.5 | ≤ 2.5 | ≤ 2.5 | 0.909 | 0.921 | 0.872 | 0.859 | 0.889 |  | 
2 | CC/C(=C(\c1ccccc1)c1ccc(OCCN(C)C)cc1)c1ccccc1 [Tamoxifen] | > 40 | ≤ 40 | ≤ 40 | > 40 | > 40 | > 40 | > 40 | > 40 | ≤ 40 | > 40 | ≤ 20 | > 40 | ≤ 5 | > 40 | > 40 | ≤ 20 | ≤ 40 | > 40 | > 40 | > 40 | > 40 | > 40 | > 40 | > 40 | 1 | 0.977 | 0.719 |  |  | 1 | 1.01
3 | C[C@]1(Cn2ccnn2)[C@H](C(=O)O)N2C(=O)C[C@H]2S1(=O)=O [Tazobactam] | ≤ 10 | ≤ 20 | ≤ 5 | ≤ 10 | > 160 | ≤ 80 | > 160 | ≤ 80 | ≤ 160 | ≤ 80 | ≤ 20 | ≤ 160 | ≤ 5 | ≤ 20 | ≤ 10 | ≤ 40 | ≤ 160 | ≤ 160 | ≤ 160 | ≤ 40 | ≤ 160 | > 160 | > 160 | > 160 | 0.834 | 0.79 | 0.716 | 0.733 | 0.722 |  | 
4 | CCCc1nc2c(C)cc(-c3nc4ccccc4n3C)cc2n1Cc1ccc(-c2ccccc2C(=O)O)cc1 [Telmisartan] | > 160 | > 160 | > 160 | > 160 | > 80 | > 160 | ≤ 40 | > 80 | > 160 | > 80 | > 80 | > 160 | > 80 | > 80 | > 160 | > 160 | > 160 | > 160 | > 40 | > 160 | ≤ 40 | > 40 | > 40 | > 40 | 0.994 | 0.966 | 0.932 | 0.892 | 0.956 |  | 
